Laboratory results: PubChem BioAssay AID2060905 (Molecular Pharmacology Branch, DTP, NCI, 2025)

System: 282377-053-R-J1-PDC complex spheroid viability
Experiment: Anticancer human tumor 282377-053-R-J1-PDC patient-derived colon adenocarcinoma cell line growth inhibition [RAS]
Conditions: for IC50: curve of first compound; for viability, T/C: stronger effect = lower value
Text: RAS pathway inhibitors in Combinations in Complex Spheroids
A high-throughput screen of multi-cell type tumor spheroids was designed to identify active combinations of RAS pathway inhibitors and targeted small molecules. Complex spheroids include a stromal component modeled by human endothelial cells (HUVEC) and fibroblasts modeled by human mesenchymal stem cells (MSCs). The concentration ranges selected for each drug and investigational agent were based upon clinically achievable concentrations if the clinical Cmax of the agent was known.
Compounds. The drugs and investigational agents: abemaciclib (NSC768073), cobimetinib (NSC768068), divarasib (GDC6063, NSC841802), docetaxel (NSC628503), GDC-1971 (RLY-1971, NSC841576), gemcitabine (NSC613327), inavolisib (NSC800729), ipatasertib (NSC767898), KB-0742 (NSC834161), MRTX-1133 (NSC836407), osimertinib (NSC779217), RMC-4630 (NSC839698), RMC-6236 (NSC851965), RMC-6291 (NSC852671), Ro-3306 (NSC812927), sapanisertib (NSC764658), SN-38 (NSC673596), staurosporine (NSC755774), SY5609 (NSC837396), and tovorafenib (DAY101, NSC766906), were obtained from the National Cancer Institute (NCI) Developmental Therapeutics Program Chemical Repository. The FDA-approved anticancer drug set is available from the NCI Developmental Therapeutics Program. […] The stock solutions were prepared in dimethyl sulfoxide (DMSO, Sigma-Aldrich, St. Louis, MO, cat. D2650) at 800-fold the tested concentration and stored at -70 degrees C prior to their use. All drugs and investigational agents were tested over a range starting from a high concentration at or near the clinical Cmax and decreasing in half-log increments. If the clinical Cmax for an agent had not been determined, the highest concentration tested was 10 microM.
Cell Culture. All cells were maintained in an incubator at 37 degrees C and 5% CO2 with 95% humidity. The PDC lines were cultured according to standard operating procedures established by the NCI PDMR. All PDCs were thawed and cultured in Matrigel-coated flasks prepared with a working solution of 1X Ham's F-12 nutrient mix, without supplementation (Invitrogen, Waltham, MA, cat. 11765054), 100 U/mL penicillin-streptomycin (Invitrogen, cat. 15140122), and 2.5% Matrigel (Corning Inc., Corning, NY, cat. 354248) for the first three passages. The 362531-283-R-J2-PDC and 782815-120-R-J1-PDC lines were cultured in 6C/Colon 1B media, which includes advanced DMEM/F-12 (Thermo Fisher Scientific, cat. 12634028), 10 mM HEPES (Thermo Fisher Scientific, cat. 15630080), 1X GlutaMAX supplement (Thermo Fisher Scientific, cat. 35050061), 0.1 mg/mL primocin (InvivoGen, San Diego, CA, cat. ant-pm-2), 10% defined fetal bovine serum, heat inactivated (HyClone Laboratories Inc., Logan, UT, cat. SH30070.03HI), 50% L-WRN conditioned media (ATCC, cat. CRL-3276), 1.25 mM N-Acetyl-L-cysteine (Sigma-Aldrich, cat. A9165), 10 mM nicotinamide (Sigma-Aldrich, cat. N0636), 1X B-27 supplement (Thermo Fisher Scientific, cat. 17504044), 1X N-2 supplement (Thermo Fisher Scientific, cat. 17502048), 50 ng/mL human EGF (Thermo Fisher Scientific, cat. PHG0311), and 10 microM Y-27632 dihydrochloride (Tocris Bioscience, cat. 1254). The K12877-001-R-J1-PDC line was cultured in 6I media, which includes all 6C/Colon 1B media plus 10 ng/mL human FGF-10 (PeproTech, cat. 100-26), 1 ng/mL human FGF-2 (PeproTech, cat. 100-18B), 1 µM prostaglandin E2 (Tocris Bioscience, cat. 2296), […] hydrocortisone (Sigma-Aldrich, cat. H4001), and […] bovine insulin (Sigma-Aldrich, cat. I6634). The K86415-001-R-J1-PDC line was cultured in 6D media, which includes all 6C/Colon 1B media components minus the L-WRN conditioned media. The 485176-168-R4-J1-PDC was cultured in PANC media, which includes all 6C/Colon 1B media plus 100 ng/mL human FGF-10 (PeproTech, cat. 100-26), 500 nM SB-431542 (Selleckchem, cat. S1067), and 10 nM gastrin (Tocris Bioscience, cat. 3006). […]
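Further: spheroids exposed to agents for seven days before readout.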
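Wherever viability, T/C is given: luminescence viability as percent of DMSO vehicle control wells.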

## Cc1nc(N2CCC3(CC2)COC(C)C3N)c(CO)nc1Sc1ccnc(N)c1Cl (configuration not stated) + CCn1c(-c2cc(N3CCN(C)CC3)cnc2C(C)OC)c2c3cc(ccc31)-c1csc(n1)CC(NC(=O)C1CC1C)C(=O)N1CCCC(N1)C(=O)OCC(C)(C)C2
Second compound 0.000949 µM
  IC50: > 10 µM
Second compound 0.003 µM
  IC50: > 10 µM
Second compound 0.00949 µM
  IC50: > 10 µM
Second compound 0.03 µM
  IC50: > 10 µM
Second compound 0.0949 µM
  IC50: > 10 µM
Second compound 0.3 µM
  IC50: > 10 µM
Second compound 0.000949 µM, first compound 0.0316 µM
  viability, T/C: 88.7%
Second compound 0.000949 µM, first compound 0.1 µM
  viability, T/C: 92.8%
Second compound 0.000949 µM, first compound 0.316 µM
  viability, T/C: 89.5%
Second compound 0.000949 µM, first compound 1 µM
  viability, T/C: 87.7%
Second compound 0.000949 µM, first compound 3.16 µM
  viability, T/C: 76.8%
Second compound 0.000949 µM, first compound 10 µM
  viability, T/C: 96.8%
Second compound 0.003 µM, first compound 0.0316 µM
  viability, T/C: 80.6%
Second compound 0.003 µM, first compound 0.1 µM
  viability, T/C: 94.4%
Second compound 0.003 µM, first compound 0.316 µM
  viability, T/C: 78.7%
Second compound 0.003 µM, first compound 1 µM
  viability, T/C: 80.5%
Second compound 0.003 µM, first compound 3.16 µM
  viability, T/C: 94.8%
Second compound 0.003 µM, first compound 10 µM
  viability, T/C: 96.5%
Second compound 0.00949 µM, first compound 0.0316 µM
  viability, T/C: 82.7%
Second compound 0.00949 µM, first compound 0.1 µM
  viability, T/C: 64.8%
Second compound 0.00949 µM, first compound 0.316 µM
  viability, T/C: 74.6%
Second compound 0.00949 µM, first compound 1 µM
  viability, T/C: 105%
Second compound 0.00949 µM, first compound 3.16 µM
  viability, T/C: 74.5%
Second compound 0.00949 µM, first compound 10 µM
  viability, T/C: 94%
Second compound 0.03 µM, first compound 0.0316 µM
  viability, T/C: 80.6%
Second compound 0.03 µM, first compound 0.1 µM
  viability, T/C: 82.2%
Second compound 0.03 µM, first compound 0.316 µM
  viability, T/C: 90.1%
Second compound 0.03 µM, first compound 1 µM
  viability, T/C: 85.3%
Second compound 0.03 µM, first compound 3.16 µM
  viability, T/C: 88%
Second compound 0.03 µM, first compound 10 µM
  viability, T/C: 91.1%
Second compound 0.0949 µM, first compound 0.0316 µM
  viability, T/C: 69.7%
Second compound 0.0949 µM, first compound 0.1 µM
  viability, T/C: 93.5%
Second compound 0.0949 µM, first compound 0.316 µM
  viability, T/C: 88.9%
Second compound 0.0949 µM, first compound 1 µM
  viability, T/C: 78.6%
Second compound 0.0949 µM, first compound 3.16 µM
  viability, T/C: 95.5%
Second compound 0.0949 µM, first compound 10 µM
  viability, T/C: 93.8%
Second compound 0.3 µM, first compound 0.0316 µM
  viability, T/C: 80.5%
Second compound 0.3 µM, first compound 0.1 µM
  viability, T/C: 88.8%
Second compound 0.3 µM, first compound 0.316 µM
  viability, T/C: 91.1%
Second compound 0.3 µM, first compound 1 µM
  viability, T/C: 105%
Second compound 0.3 µM, first compound 3.16 µM
  viability, T/C: 112%
Second compound 0.3 µM, first compound 10 µM
  viability, T/C: 89.8%
